Counter-ions that a name gives are not always drawn.

In general, IC50 refers to the concentration that inhibits the measured activity by half. A higher IC50 goes with a need for much substance.

This assay deals with Sodium-dependent serotonin transporter (Rattus norvegicus) (UniProt P31652). The assay can be described thus: Inhibition of binding of [3H]imipramine to imipramine receptor in rat brain.
Sequence of Sodium-dependent serotonin transporter (Rattus norvegicus) (P31652 whole entry, looked up): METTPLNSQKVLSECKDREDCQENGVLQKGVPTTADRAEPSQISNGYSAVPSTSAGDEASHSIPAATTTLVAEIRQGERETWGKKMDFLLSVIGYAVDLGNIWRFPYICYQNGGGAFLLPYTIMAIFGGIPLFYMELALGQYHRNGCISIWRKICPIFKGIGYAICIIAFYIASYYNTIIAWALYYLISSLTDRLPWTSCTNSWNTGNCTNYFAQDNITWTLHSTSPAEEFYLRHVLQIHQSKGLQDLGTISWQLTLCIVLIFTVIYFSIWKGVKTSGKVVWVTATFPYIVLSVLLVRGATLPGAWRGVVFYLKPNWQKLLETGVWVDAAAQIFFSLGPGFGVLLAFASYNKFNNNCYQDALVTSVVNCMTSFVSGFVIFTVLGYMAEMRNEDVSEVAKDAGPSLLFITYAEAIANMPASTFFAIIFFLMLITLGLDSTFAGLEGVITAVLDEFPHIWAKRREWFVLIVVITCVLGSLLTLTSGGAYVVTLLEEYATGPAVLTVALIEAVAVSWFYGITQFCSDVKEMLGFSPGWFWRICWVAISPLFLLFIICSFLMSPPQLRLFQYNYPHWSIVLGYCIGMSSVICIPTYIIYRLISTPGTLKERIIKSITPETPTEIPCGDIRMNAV
For the compound `COc1ccc(C(CN(C)C)C2(O)CCCCCCC2)cc1` (stereo not given), the IC50 is > 10000 nM. For `CN(C)CC(c1ccc([N+](=O)[O-])cc1)C1(O)CCCCC1` (stereo not given) the value was 250 nM; for `CN(C)CC(c1ccc(Br)cc1)C1(O)CCC1` (stereo not given), 435 nM. Next, `Cc1ccc(C(CN(C)C)C2(O)CCCCC2)cc1` (stereo not given): 205 nM; `COc1ccc(C(CN2CCOCC2)C2(O)CCCCC2)cc1` (stereo not given): > 10000 nM; `COc1ccc(C(CN)C2(O)CCCCC2)cc1` (stereo not given): 900 nM. Turning to `CN(C)CC(c1ccc(N)cc1)C1(O)CCCCC1` (stereo not given), the IC50 was > 10000 nM. Next, `CN(C)CC(c1ccccc1Cl)C1(O)CCCCC1` (stereo not given) [1-(1-(2-chlorophenyl)-2-(dimethylamino)ethyl)cyclohexanol]: 523 nM; `COc1ccc(C(CN2CCCCC2)C2(O)CCCCC2)cc1` (stereo not given): > 10000 nM. Next, `CNCC(c1ccc(OC)cc1)C1(O)CCCCC1` (stereo not given) [N-Desmethylvenlafaxine]: 300 nM; `CN(C)CC(c1ccccc1Br)C1(O)CCCCC1` (stereo not given): 260 nM; `CN(C)CC(c1ccc(Cl)c(Cl)c1)C1(O)CCCCC1` (stereo not given): 37 nM. As to `CN(C)CC(c1ccc(C(F)(F)F)cc1)C1(O)CCCCC1` (stereo not given), the IC50 amounted to 88 nM. This IC50 lies about 2.4-fold higher than the previous one. For `COc1ccc(C(CN(C)C)C2(O)CCCCC2)cc1OC` (stereo not given) the value was 700 nM; for `CN(C)CC(c1cccc(Br)c1)C1(O)CCCCC1` (stereo not given), 52 nM; for `CN(C)CC(c1ccc(Cl)cc1)C1(O)CCCCC1` (stereo not given) [1-[1-(4-Chloro-phenyl)-2-dimethylamino-ethyl]-cyclohexanol (HCl)], 100 nM. Next, `COc1ccc(C(CN(C)C)C2(O)CCCCC2)cc1Br` (stereo not given): 190 nM; `CN(C)CC(c1cccc(Cl)c1)C1(O)CCCCC1` (stereo not given): 130 nM; `COc1ccc(C(CN(C)C)C2(O)CCCCCC2)cc1` (stereo not given): 300 nM. Next, `COc1ccc(C(CN(C)C)C2(O)CCCC2)cc1` (stereo not given): 126 nM; `COc1cccc(C(CN(C)C)C2(O)CCCC2)c1` (stereo not given): 95 nM; `COc1ccc(C(CN2CCCC2)C2(O)CCCCC2)cc1` (stereo not given): > 10000 nM. In the case of `COc1cccc(C(CN(C)C)C2(O)CCCCC2)c1` (stereo not given) [1-(2-(dimethylamino)-1-(3-methoxyphenyl)ethyl)cyclohexanol], the IC50 came to 150 nM. For `CN(C)CC(c1ccc(Br)cc1)C1(O)CCCCC1` (stereo not given) the value was 62 nM.

On to `CN(C)CC(c1ccccc1O)C1(O)CCCCC1` (stereo not given), for which the IC50 was > 10000 nM.

(Values after BindingDB's records for doi:10.1021/jm00172a035 (Wyeth-Ayerst Research, 1990).)
